Read-outs that look alike come from different tables or passages of the source.
Columns and labels:
HIV-1 = assay: microbe, parasite or virus in culture; type: cell-based; conditions: for IC50: HIV-infected MT-4 cells, MTT, OD 540 nm, read-out: IC50 (50% inhibitory concentration, dose achieving 50% protection); for SI (selectivity index, ratio of CC50 to IC50): MT-4 cells
Method: A rapid, sensitive and automated assay procedure was used for the in vitro evaluation of anti-HIV agents. An […] T4-cell line, MT-4, which was previously shown (Koyanagi et al., Int. J. Cancer, 36, 445–451, 1985) to be highly susceptible to and permissive for HIV infection, served as the target cell line. Inhibition of the HIV-induced cytopathic effect was used as the end point. The viability of both HIV- and mock-infected cells was assessed spectrophotometrically via the in situ reduction of 3-(4,5-dimethylthiazol-2-yl)-2,5-diphenyltetrazolium bromide (MTT). The 50% cytotoxic concentration (CC50 in μM) was defined as the concentration of compound that reduced the absorbance of the mock-infected control sample by 50%. The percent protection achieved by the compound in HIV-infected cells was calculated by the following formula:
(§1) [formula] whereby (ODT)HIV is the optical density measured with a given concentration of the test compound in HIV-infected cells; (ODC)HIV is the optical density measured for the control untreated HIV-infected cells; (ODC)MOCK is the optical density measured for the control untreated mock-infected cells; all optical density values were determined at 540 nm. The dose achieving 50% protection according to the above formula was defined as the 50% inhibitory concentration (IC50 in μM). The ratio of CC50 to IC50 was defined as the selectivity index (SI).

mock-infected MT-4 cells = assay: Cytotoxicity in mock-infected MT-4 cells (MTT); type: cell-based; conditions: OD 540 nm, read-out: CC50 (50% cytotoxic concentration)
Method: (§2) A rapid, sensitive and automated assay procedure was used for the in vitro evaluation of anti-HIV agents. […] Inhibition of the HIV-induced cytopathic effect was used as the end point. The viability of both HIV- and mock-infected cells was assessed spectrophotometrically via the in situ reduction of 3-(4,5-dimethylthiazol-2-yl)-2,5-diphenyltetrazolium bromide (MTT). […] The percent protection achieved by the compound in HIV-infected cells was calculated by the following formula:
as §1, with “The dose achieving 50% protection according to the above formula was defined as the 50% inhibitory concentration (IC50 in μM).” left out

[1] = Cytotoxicity in mock-infected MT-4 cells (MTT); type: cell-based; conditions: human, OD 540 nm, read-out: CC50 (50% cytotoxic concentration)
Method: as §2
as §1, with “The dose achieving 50% protection according to the above formula was defined as the 50% inhibitory concentration (IC50 in μM).” left out

[2] = Human immunodeficiency virus 1, MT4

Which IC50 (HIV-1) does the source give for `Cc1cc(C)c(S(=O)(=O)c2cn(C)c(=O)c(Nc3ccc(C#N)cc3)n2)c(C)c1` [Compound 15, 4-[[3,4-dihydro-4-methyl-3-oxo-6-[(2,4,6-trimethylphenyl)sulfonyl]pyrazinyl]amino]-benzonitrile] here?
Its IC50 is 0.0079 µM.

What about the CC50 (mock-infected MT-4 cells) of the same molecule?
The CC50 was 99.4 µM.

For `Cc1ccc(Oc2cn(C)c(=O)c(Nc3ccccc3)n2)c(C)c1` [Compound 7, 5-(2,4-dimethylphenoxy)-1-methyl-3-(phenylamino)-2(1H)-pyrazinone], which IC50 (HIV-1; [2]) is on record?
The IC50 was 0.2 µM.

What about the “SI (selectivity index, ratio of CC50 to IC50)” value (HIV-1) of the same molecule?
The value was 501.

And the CC50 [1]?
Its CC50 is 99.9 µM.

With `Cc1ccccc1Sc1nc(Nc2ccc(C#N)cc2)c(=O)n(C)c1C` [Compound 24, 4-[[3,4-dihydro-4,5-dimethyl-6-[(2-methylphenyl)thio]-3-oxopyrazinyl]amino]-benzonitrile] as the molecule, how does the IC50 (HIV-1; [2]) read?
Its IC50 is 0.0251 µM.

What about the “SI (selectivity index, ratio of CC50 to IC50)” value (HIV-1) of the same molecule?
The value was 3981.

And the CC50 [1]?
The CC50 was 99.9 µM.

With `Cc1ccc(Oc2nc(Nc3ccc(C#N)cc3)c(=O)n(C)c2C)c(C)c1` [Compound 20, 4-[[6-(2,4-dimethylphenoxy)-3,4-dihydro-4,5-dimethyl-3-oxopyrazinyl]amino]-benzonitrile] as the molecule, how does the IC50 (HIV-1; [2]) read?
The IC50 was 0.0025 µM.

What about the “SI (selectivity index, ratio of CC50 to IC50)” value (HIV-1) of the same molecule?
Its value is 39811.

What about the CC50 [1] of the same molecule?
The CC50 was 99.5 µM.

Which melting point does the source give for `Cc1ccccc1Sc1nc(Nc2ccc(C#N)cc2)c(=O)n(Cc2ccccc2)c1C` [Compound 27, 4-[[6-[(2-methylphenyl)thio]-5-methyl-3,4-dihydro-3-oxo-4-(phenylmethyl)pyrazinyl]amino]-benzonitrile] here?
Its melting point is 195 °C.

Which IC50 (HIV-1; [2]) does the source give for `Cc1cc(C)c(S(=O)(=O)c2nc(Nc3ccc(C#N)cc3)c(=O)n(C)c2C)c(C)c1` [Compound 17, 4-[[3,4-dihydro-4,5-dimethyl-3-oxo-6-[(2,4,6-trimethylphenyl)sulfonyl]pyrazinyl]amino]-benzonitrile] here?
Its IC50 is 0.005 µM.

What about the “SI (selectivity index, ratio of CC50 to IC50)” value (HIV-1) of the same molecule?
Its value is 19953.

What about the CC50 [1] of the same molecule?
Its CC50 is 99.8 µM.

With `Cc1cc(C#N)cc(C)c1Oc1nc(Nc2ccc(C#N)cc2)c(=O)n(C)c1C` [Compound 1, 4-[[6-[(4-cyanophenyl)amino]-4,5-dihydro-3,4-dimethyl-5-oxopyrazinyl]oxy]-3,5-dimethyl-benzonitrile] as the molecule, how does the IC50 (HIV-1; [2]) read?
The IC50 was 0.0063 µM.

And the “SI (selectivity index, ratio of CC50 to IC50)” value (HIV-1)?
Its value is 15849.

What about the CC50 [1] of the same molecule?
Its CC50 is 99.8 µM.

Which results are given for `Cc1ccc(Sc2cn(C)c(=O)c(Nc3ccc(C#N)cc3)n2)c(C)c1` [Compound 21, 4-[[6-[(2,4-dimethylphenyl)thio]-3,4-dihydro-4-methyl-3-oxopyrazinyl]amino]-benzonitrile]?
IC50 (HIV-1): 0.005 µM; CC50 (mock-infected MT-4 cells): 99.8 µM

Which results are given for `Cc1ccc(Oc2cn(Cc3ccccc3)c(=O)c(Nc3ccc(C#N)cc3)n2)c(C)c1` [Compound 9, 4-[[6-(2,4-dimethylphenoxy)-3,4-dihydro-3-oxo-4-(phenylmethyl)pyrazinyl]amino]-benzonitrile]?
IC50 (HIV-1; [2]): 0.0316 µM; SI (selectivity index, ratio of CC50 to IC50) (HIV-1): 3162; CC50 [1]: 99.9 µM; melting point: 175 °C

For `Cc1ccccc1Oc1nc(Nc2ccc(Cl)cc2)c(=O)n(C)c1C` [Compound 6, 3-[(4-chlorophenyl)amino]-1,6-dimethyl-5-(2-methylphenoxy)-2(1H)-pyrazinone], which IC50 (HIV-1; [2]) is on record?
The IC50 was 0.1 µM.

And the “SI (selectivity index, ratio of CC50 to IC50)” value (HIV-1)?
The value was 1000.

And the CC50 [1]?
Its CC50 is 100 µM.

What does the source list for `Cc1cc(C)c([S+]([O-])c2nc(Nc3ccc(C#N)cc3)c(=O)n(C)c2C)c(C)c1` (stereo not shown) [Compound 18]?
IC50 (HIV-1; [2]): 0.004 µM; SI (selectivity index, ratio of CC50 to IC50) (HIV-1): 25119; CC50 [1]: 100 µM

Which results are given for `Cc1ccc(Oc2cn(C)c(=O)c(Nc3ccc(Cl)cc3)n2)c(C)c1` [Compound 22, 3-[(4-chlorophenyl)amino]-5-(2,4-dimethylphenoxy)-1-methyl-2(1H)-pyrazinone]?
IC50 (HIV-1; [2]): 0.02 µM; SI (selectivity index, ratio of CC50 to IC50) (HIV-1): 5012; CC50 [1]: 100 µM

Which results are given for `Cc1cc(C)c(Sc2cn(C)c(=O)c(Nc3ccc(Cl)cc3)n2)c(C)c1` [Compound 14, 3-[(4-chlorophenyl)amino]-1-methyl-5-[(2,4,6-trimethylphenyl)thio]-2(1H)-pyrazinone]?
IC50 (HIV-1; [2]): 0.0794 µM; SI (selectivity index, ratio of CC50 to IC50) (HIV-1): 1259; CC50 [1]: 99.9 µM

With `Cc1ccccc1Sc1nc(Nc2ccc(C#N)cc2)c(=O)[nH]c1C` [Compound 28, 4-[[3,4-dihydro-5-methyl-6-[(2-methylphenyl)thio]-3-oxopyrazinyl]amino]-benzonitrile] as the molecule, how does the melting point read?
The melting point was 290 to 291 °C.

Which IC50 (HIV-1; [2]) does the source give for `Cc1ccc(Oc2nc(Nc3ccc(Cl)cc3)c(=O)n(C)c2C)c(C)c1` [Compound 23, 3-[(4-chlorophenyl)amino]-5-(2,4-dimethylphenoxy)-1,6-dimethyl-2(1H)-pyrazinone] here?
The IC50 was 0.0501 µM.

And the “SI (selectivity index, ratio of CC50 to IC50)” value (HIV-1)?
Its value is 1995.

And the CC50 [1]?
The CC50 was 99.9 µM.

For `Cc1ccccc1Oc1cn(C)c(=O)c(Nc2ccc(C#N)cc2)n1` [Compound 2, 4-[[3,4-dihydro-4-methyl-6-(2-methylphenoxy)-3-oxopyrazinyl]amino]-benzonitrile], which IC50 (HIV-1) is on record?
The IC50 was 0.004 µM.

And the CC50 (mock-infected MT-4 cells)?
The CC50 was 100 µM.

Which results are given for `Cc1ccc(Oc2cn(C)c(=O)c(Nc3ccc(C(F)(F)F)cc3)n2)c(C)c1` [Compound 11, 5-(2,4-dimethylphenoxy)-1-methyl-3-[[4-(trifluoromethyl)phenyl]amino]-2(1H)-pyrazinone]?
IC50 (HIV-1; [2]): 0.501 µM; SI (selectivity index, ratio of CC50 to IC50) (HIV-1): 200; CC50 [1]: 100 µM

Which results are given for `Cc1cc(C)c(Sc2cn(C)c(=O)c(Nc3ccc(C#N)cc3)n2)c(C)c1` [Compound 13, 4-[[3,4-dihydro-4-methyl-3-oxo-6-[(2,4,6-trimethylphenyl)thio]pyrazinyl]amino]-benzonitrile]?
IC50 (HIV-1): 0.0158 µM; CC50 (mock-infected MT-4 cells): 99.7 µM

What does the source list for `Cc1ccccc1Oc1nc(Nc2ccc(C#N)cc2)c(=O)n(C)c1C` [Compound 19, 4-[[3,4-dihydro-4,5-dimethyl-6-(2-methylphenoxy)-3-oxopyrazinyl]amino]-benzonitrile]?
IC50 (HIV-1; [2]): 0.005 µM; SI (selectivity index, ratio of CC50 to IC50) (HIV-1): 19953; CC50 [1]: 99.8 µM

With `Cc1ccc(Sc2nc(Nc3ccc(Cl)cc3)c(=O)n(C)c2C)c(C)c1` [Compound 8, 3-[(4-chlorophenyl)amino]-5-[(2,4-dimethylphenyl)thio]-1,6-dimethyl-2(1H)-pyrazinone] as the molecule, how does the IC50 (HIV-1; [2]) read?
The IC50 was 0.501 µM.

And the “SI (selectivity index, ratio of CC50 to IC50)” value (HIV-1)?
Its value is 200.

What about the CC50 [1] of the same molecule?
The CC50 was 100 µM.

For `Cc1ccccc1Sc1cn(C)c(=O)c(Nc2ccc(C#N)cc2)n1` [Compound 4, 4-[[3,4-dihydro-4-methyl-6-[(2-methylphenyl)thio]-3-oxopyrazinyl]amino]-benzonitrile], which IC50 (HIV-1; [2]) is on record?
Its IC50 is 0.02 µM.

And the “SI (selectivity index, ratio of CC50 to IC50)” value (HIV-1)?
The value was 5012.

What about the CC50 [1] of the same molecule?
The CC50 was 100 µM.

Which IC50 (HIV-1) does the source give for `Cc1ccc(Oc2cn(C)c(=O)c(Nc3ccc(C#N)cc3)n2)c(C)c1` [Compound 3, 4-[[6-(2,4-dimethylphenoxy)-3,4-dihydro-4-methyl-3-oxopyrazinyl]amino]-benzonitrile] here?
The IC50 was 0.0006 µM.

What about the CC50 (mock-infected MT-4 cells) of the same molecule?
The CC50 was 95.1 µM.

Which IC50 (HIV-1; [2]) does the source give for `Cc1ccc(S(=O)(=O)c2nc(Nc3ccc(C#N)cc3)c(=O)n(C)c2C)c(C)c1` [Compound 16, 4-[[6-[(2,4-dimethylphenyl)sulfonyl]-3,4-dihydro-4,5-dimethyl-3-oxopyrazinyl]amino]-benzonitrile] here?
The IC50 was 0.0316 µM.

And the “SI (selectivity index, ratio of CC50 to IC50)” value (HIV-1)?
Its value is 3162.

What about the CC50 [1] of the same molecule?
The CC50 was 99.9 µM.

From patent publication US7105522B2, “HIV inhibiting pyrazinone derivatives” (Janssen Pharmaceutica, N.V., priority 2001, dated 2006)
